# From publication PMC11042424, “Development of a First-in-Class RIPK1 Degrader to Enhance Antitumor Immunity” (Research Square, 2024)
# What was measured:
# [1] = Stability in human liver S9 fractions; type: in vitro ADME
# [2] = test system: B16F10 tumors; test: Five-day treatment of B16F10 tumors: cell death and tumor immune microenvironment; type: in vivo, C57BL/6J mice
# Excerpt: Figure 5 LD4172 alters the tumor immune microenvironment. A. Representative immunofluorescent images depict RIPK1, Calreticulin, CD8, CD4, Foxp3, or F4/80, as well as hematoxylin and eosin (H&E) images, alongside representative images illustrating cleaved caspase3/7 levels in B16F10 tumors under the indicated treatment for five days. n = 4–6 independent fields per group. Scale bars are shown as follows: 20 μm, objective 60X; 200 μm, objective 60X. B. The mouse plasma HMGB1 level from different treatment groups (n=8). C-G. Flow cytometry quantification of PD1+CD8+ T cells (C), CD4+ T cells (D), cDC cells (E), macrophages (F), and CD8+ T cells (G) in B16F10 tumors following 5 days of indicated treatment (n = 10/group). H. Flow cytometric quantification of IFNγ+ CD8+ T cells in B16F10 tumors treated with the indicated treatments for 5 days and stimulated with PMA/ionomycin in vitro for 6 h (n = 10/group). I. Tumor volume (mm3) of vehicle-, anti-PD1-, LD4172-, anti-PD1+LD4172-, and anti-PD1+LD4172+anti-CD8–treated B16F10 tumors (n=8). J. Heat map showing log 10-fold changes in the concentration of mouse plasma cytokines normalized by the mean value of control mice (n=8). For all experiments: LD4172: 20 mg/kg; anti-PD1 antibody: 100 μg/mice; Combo: LD4172 plus anti-PD1. Representative data from at least three independent experiments are shown. Data are expressed as the mean ± SEM. * p<0.05; ** p<0.01; *** p<0.001; **** p<0.0001, respectively. “ns” indicates no statistical significance.
# Tumors were collected on day 13, weighed, mechanically diced, and digested with liberase (2 mg/mL, 05401020001, Roche) and DNase I (50 μg/mL, 11284932001, Sigma-Aldrich) at 37°C for 30 minutes with rotation. Single-cell suspensions were obtained by filtering the digested tissues through a 45 μm strainer, after which erythrocytes were removed using 1x RBC lysis buffer (420301, Biolegend). To stain the cell surface markers of tumor-infiltrating lymphocytes (TILs), single-cell suspensions were blocked with anti-mouse CD16/32 (156603, BioLegend) for 10 minutes on ice, and then incubated with fluorochrome-labeled antibodies diluted with staining buffer (1:50, PBS, 2% FBS, 0.1% EDTA) for 30 minutes on ice in the dark. Dead cells were excluded using DAPI (1:1,000, BioLegend). After washing, cells were resuspended in 300–500 μL staining buffer for flow cytometry analysis. For intracellular cytokine staining, cells were incubated in culture medium (RPMI-1640, 10% FBS, Brefeldin A or Cell Activation Cocktail (with Brefeldin A)) at 37°C for 6 h. Cells were stained with eBioscience™ Fixable Viability Dye eFluor™ 450, TruStain FcX™ PLUS and surface CD45, CD3ε, CD8a. Cells were fixed-permeabilized by Intracellular Fixation & Permeabilization Buffer Set (Biolegend, 421403) according to the manufacturer’s protocol. Then cells were stained with anti-IFNγ (XMG1.2) for 1 hour at room temperature (RT). Cells were resuspended in FACS buffer and subjected to BD LSR-II for analysis.
# Mouse serum was analyzed using multiplex immunoassays designed for mice (Mouse Cytokine Array / Chemokine Array 31-Plex (MD31) from Eve Technologies), with 8 replicates from each group. Heatmaps display relative cytokine expression values normalized to vehicle-treated samples. Serum HMGB1 was analyzed by ELISA (NOVUS, NBP2–62767) according to the manufacturer’s protocol.
# For H&E staining, the hydrated slides were stained with hematoxylin and eosin. For IHC analysis, after hydration, the sections were subjected to antigen retrieval by incubating in citrate buffer (pH 6.0), Tris EDTA buffer (pH 9.0), or EDTA buffer (pH 8.0) at 121°C for 15 minutes. Endogenous peroxidase was blocked with 3% H2O2 in PBS, and non-specific binding was blocked with 2.5% normal serum for 1 hour at room temperature. The sections were then incubated with the respective primary antibodies overnight at 4°C. […]
smiles,measurement,setting,value
Cc1ncsc1-c1ccc([C@H](C)NC(=O)[C@@H]2C[C@@H](O)CN2C(=O)[C@@H](NC(=O)CCCCCCCCCCC(=O)NCCCn2cc(-c3ccc4c(c3)CCN4C(=O)Cc3cccc(OC(F)(F)F)c3)c3c(N)ncnc32)C(C)(C)C)cc1 [LD4172],half-life,[1],21.1 min
same,intrinsic clearance (CLint),[1],32.8 μL·min^− 1·mg^− 1 protein
same,RIPK1 degradation in the tumor,[2]; 20 mg/kg,substantial degradation of RIPK1
same,cell death in the tumor (H&E),[2]; 20 mg/kg,significant cell death
same,cleaved caspase 3/7 levels in tumors,[2]; 20 mg/kg,notable increase
same,plasma HMGB1 levels,[2]; 20 mg/kg,significant increase
same,"CD4 + T cells, conventional dendritic cells and macrophages within the TME","[2]; 20 mg/kg, flow cytometry",notable expansion
same,"cytotoxic CD8 + T cells within the TME, combined with anti-PD1",[2]; LD4172 20 mg/kg plus anti-PD1 100 μg,increased infiltration
